Each structure is given as a SMILES string.

These results are taken from patent US11052092B2, “N-{[2-(piperidin-1-yl)phenyl](phenyl)methyl}-2-(3-oxo-3,4-dihydro-2H-1,4-benzoxazin-7-yl)acetamide derivatives and related compounds as ROR-gamma modulators for treating autoimmune diseases” (Genfit, priority 2017, dated 2021).

The target in experiment [1] is T1, human RORγt (Homo sapiens, UniProt P51449).
T1 construct: the full-length cDNA of human RORγt; expressed in transfected cells; host or cells: COS-7 (monkey kidney)
T1 sequence (P51449 1-497 isoform P51449-2): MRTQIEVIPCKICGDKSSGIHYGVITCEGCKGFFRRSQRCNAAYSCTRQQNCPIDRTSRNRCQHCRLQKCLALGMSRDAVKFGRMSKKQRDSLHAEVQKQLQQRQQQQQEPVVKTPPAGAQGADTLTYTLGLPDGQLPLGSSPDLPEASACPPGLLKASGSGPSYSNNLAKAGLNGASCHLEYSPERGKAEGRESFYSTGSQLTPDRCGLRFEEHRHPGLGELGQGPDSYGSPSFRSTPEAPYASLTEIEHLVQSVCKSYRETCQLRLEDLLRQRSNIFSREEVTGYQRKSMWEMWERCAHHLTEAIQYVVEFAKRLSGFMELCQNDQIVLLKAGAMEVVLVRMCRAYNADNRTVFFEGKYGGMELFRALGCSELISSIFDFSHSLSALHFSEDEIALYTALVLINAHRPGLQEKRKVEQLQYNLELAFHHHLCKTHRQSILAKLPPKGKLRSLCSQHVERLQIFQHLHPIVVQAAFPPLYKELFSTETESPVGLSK
Put plainly: RORE Luciferase/RORγt transactivation assay. The following applies: COS-7 cells transfected with human IL-17 promoter luciferase reporter and RORγt plasmid; 20 h with compound; read-out: IC50, RORγt activity inhibition. The format is cell-based. The method, boiled down: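 Transactivation read-out: luminescence (Steady-Glo, 30 min at room temperature) from COS-7 cells carrying a RORγt expression plasmid plus a 4.3 kb IL-17 promoter luciferase reporter. Compound exposure was in serum-free DMEM with 0.3% DMSO final. Reported values are IC50 (μM) and Emax (%).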

The subject of experiment [2] is MOG-induced EAE mice. Briefly: Experimental Autoimmune Encephalomyelitis (EAE) study. The format is in vivo, C57BL/6 mice. The source says: 8-10 week old, female C57BL/6 mice were purchased from Janvier Lab (St Berthevin, France) and housed for one week before the start of the studies. EAE was induced by immunization with an emulsion of peptide antigen MOG35-55 (Myelin Oligodendrocyte Glycoprotein) ([…], SEQ ID NO: 1) in complete Freund's Adjuvant (CFA), followed by administration of Pertussis Toxin (PTX) in PBS on the day of immunization and day 1 post immunization, following manufacturer recommendation (Hooke, Kit MOG35-55/CFA Emulsion PTX). Animals were treated with drug beginning 2 days before peptide injection. Animals were randomized into groups for treatment by weight, so that the average weight of each group was similar. The groups were segregated by cage. Compounds according to the invention were suspended in Labrafil (M1944 CS) by sonication and animals were dosed twice daily by gavage with 5 mL/kg body weight. The daily doses of Cpd.24 were 30 and 60 mg/kg (b.i.d.) by gavage. […]
Data are expressed as (FIG. 4A) mean (+/−SEM) of clinical score for each group per day and (FIG. 4B). […]
Statistical evaluation of differences between the experimental groups was determined by using two-way Anova followed by a Bonferroni post test. **p<0.005, Vehicle compared with treatments.

For orientation: IC50 means the concentration needed to halve the response being measured. Take `Cc1ccc(C(NC(=O)Cc2ccc3c(c2)CC(=O)N3)c2ccc(C)o2)c(N2CCCCC2)c1` (stereo not drawn) [Cpd. 24, N-{[4-methyl-2-(piperidin-1-yl)phenyl](5-methylfuran-2-yl)methyl}-2-(2-oxo-2,3-dihydro-1H-indol-5-yl)acetamide]: in experiment [1], the IC50 was in the range of 10 to 100 nM. Also, the clinical disease score entry in experiment [2] (by day 15 and maintained through in vivo protocol duration) is recorded as “Clinical disease score improvement was apparent”. In addition, the “onset of EAE” value in experiment [2] (p/os at 60 mg/kg (b.i.d.) for 20 days) is reported as “delay the onset of EAE”.
